Laboratory results: PubChem BioAssay (NCI)
Several values for one entry are separate records, joined by “and”; a condition that tells them apart may be missing. Equal values may be shown once.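 Step 1: Grow cells in 96-well plates. Step 2: Expose to compound for 48 hours at 5 concentrations. Step 3: Interpolate endpoints linearly; if unreached, use highest concentration. GI50 = concentration required for 50% inhibition of growth. TGI: concentration producing complete growth inhibition.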

Legend:
Test in all cases: NCI-60 cell line screen, 48 h
DLD-1 colon = system: DLD-1 colon
DMS 114 small cell lung = system: DMS 114 small cell lung
HOP-18 NSCLC = system: HOP-18 NSCLC
KM20L2 colon = system: KM20L2 colon
LXFL 529 NSCLC = system: LXFL 529 NSCLC
M19-MEL melanoma = system: M19-MEL melanoma
MDA-N = system: MDA-N
RXF-631 renal = system: RXF-631 renal
XF 498 CNS = system: XF 498 CNS
SN12K1 renal = system: SN12K1 renal

Row | SMILES | TGI (DLD-1 colon) | TGI (DMS 114 small cell lung) | TGI (HOP-18 NSCLC) | TGI (KM20L2 colon) [µM] | TGI (LXFL 529 NSCLC) | TGI (M19-MEL melanoma) | TGI (MDA-N) | TGI (RXF-631 renal) [µM] | TGI (XF 498 CNS) | other results
1 | COC(=O)c1ccccc1NC(=O)C(=O)CC(=O)c1ccccc1NC1=CC(=O)C(=O)c2ccccc21 | 30.4 µM | 5.33 µM | 29.6 µM | > 100 | 27.2 µM | 4.49 µM | 3.18 µM | > 80.8 | 30.9 µM | –
2 | C(CCc1nnc2c(n1)CCCC2)Cc1nnc2c(n1)CCCC2 | – | – | – | – | – | – | > 100 µM | – | – | –
3 | COC(=O)c1ccc(=O)c2nc3/c(=C/O)c(O)cc(=O)c3[nH]c12 | – | – | – | – | – | – | 24.6 µM | – | – | –
4 | N/N=C1\c2ccccc2C2/C(=N\N)c3ccccc3C12 (stereo unspecified) | > 100 µM | > 100 µM | > 100 µM | > 100 | > 100 µM | > 100 µM | – | – | – | –
5 | CCOc1ccccc1NC(=O)CCc1nnc2s/c(=C\CCc3ccccc3)c(=O)n12 | > 100 µM | > 100 µM | – | > 100 | > 100 µM | > 100 µM | – | – | > 100 µM | –
6 | Cc1cc(O)c2c(c1)C(=O)c1cc(O)cc(O)c1C2=O | > 100 µM | > 100 µM | 37 µM | > 100 | 85.3 µM | – | – | > 100 | 86.7 µM | –
7 | Cc1ccc(NS(=O)(=O)c2cc(C(C)(C)C)ccc2OCCOCCOCCOc2ccc(C(C)(C)C)cc2S(=O)(=O)Nc2ccc(C)cc2)cc1 | > 100 µM | > 100 µM | > 100 µM | – | – | > 100 µM | – | – | – | –
8 | Cc1cc(=O)oc2cc(OC(=O)Nc3ccc(Cl)c(Cl)c3)ccc12 | – | – | – | – | – | – | 54.7 µM | – | – | –
9 | CC(=O)OCC1OC(OC2CC3C(C)(C)C(OC(C)=O)CC[C@]3(C)C3CCC45CC4(CC[C@H]5C(C)CC(O)C4OC4(C)C)[C@]23C)C(O)C(O)C1O (stereo partly specified) | 4.4 µM and 4.77 µM | 5.46 µM and 4.32 µM | 8.91 µM and 5.96 µM | – | 10.6 µM and 15.2 µM | 6.5 µM and 6.19 µM | – | 9.55 | 3.64 µM and 3.81 µM | GI50 (DLD-1 colon): 2.38 µM; GI50 (KM20L2 colon): > 60 µM; GI50 (LXFL 529 NSCLC): 3.74 µM; GI50 (M19-MEL melanoma): 2.35 µM; GI50 (XF 498 CNS): 1.26 µM
10 | O=C([O-])c1ccc2c(c1)-c1nc-2nc2[n-]c(nc3nc(nc4[n-]c(n1)c1ccc(C(=O)[O-])cc41)-c1cc(C(=O)[O-])ccc1-3)c1ccc(C(=O)[O-])cc21.[Fe+2] | > 50 µM | > 32.6 µM | > 50 µM | > 50 | > 50 µM | > 50 µM | – | > 50 | > 50 µM | GI50 (DLD-1 colon): > 32.1 µM; GI50 (DMS 114 small cell lung): > 23.2 µM; GI50 (HOP-18 NSCLC): > 50 µM; GI50 (KM20L2 colon): > 50 µM; GI50 (LXFL 529 NSCLC): > 41.6 µM; GI50 (M19-MEL melanoma): > 31.8 µM; GI50 (RXF-631 renal): > 50 µM; GI50 (XF 498 CNS): > 50 µM
11 | CO[C@H]1[C@H](O)[C@H](O[C@H]2CC[C@@]3(C)[C@H](CC[C@@H]4[C@@H]3CC[C@]3(C)[C@@H](C5=CC(=O)OC5)CC[C@]43O)C2)O[C@@H](C)[C@@H]1O | 0.00767 µM | 0.00335 µM | 0.00382 µM | 0.0118 | 0.00658 µM and 0.0128 µM | 0.016 µM | < 0.0001 µM | > 100 | – | GI50 (RXF-631 renal): > 100 µM
12 | CC1CCCC(C(O)CC2CC(=O)N(c3ccccc3)C(=O)C2)C1=O (stereo unspecified) | > 100 µM | > 100 µM | > 100 µM | > 100 | > 100 µM | > 100 µM | – | – | – | –
13 | O=C(O)CCC1COc2ccccc2O1 (stereo unspecified) | – | – | – | – | – | – | > 10 µM | – | – | –
14 | CN(C)c1ccc(/C=C2\CNC/C(=C\c3ccc(N(C)C)cc3)C2=O)cc1 | 46.2 µM | 34.7 µM | 36.8 µM | > 100 | 98.2 µM | 46.8 µM | – | 60.7 | 48.6 µM | –
15 | C#CCN1CCN(C(=S)N/N=C(\C)c2ccccn2)CC1 | 6.58 µM | – | 10.6 µM | 15 | 18.2 µM | – | 3.76 µM and 8.58 µM | – | 2.72 µM | GI50 (DLD-1 colon): 0.00155 µM; GI50 (KM20L2 colon): < 0.001 µM; TGI (SN12K1 renal): 2.22 µM
16 | CCc1cccc(CC)c1NC(=S)NC(=O)c1ccc(Br)cc1 | > 100 µM | > 100 µM | > 100 µM | > 100 | > 100 µM | > 100 µM | > 100 µM | > 100 | > 100 µM | –
17 | N#C/C(=C/c1cccnc1)C(=O)c1ccccc1 | > 100 µM | > 100 µM | > 100 µM | > 100 | > 100 µM | > 100 µM | – | – | > 100 µM | –
18 | COc1ccc(NC(=O)C(=O)NNC(=O)c2sc(NNC(C)=O)nc2C)c([N+](=O)[O-])c1 | – | > 100 µM | – | > 100 | > 100 µM | > 100 µM | – | – | > 100 µM | –
19 | CCC(=O)OC1CCn2c1nc1c2C(=O)C(C)=C(N2CC2)C1=O (stereo unspecified) | 1.58 µM | 0.522 µM | 0.228 µM | 0.831 | 0.35 µM | 0.345 µM | 0.181 µM | – | 0.0973 µM | –

Row | SMILES | TGI (DLD-1 colon) | TGI (DMS 114 small cell lung) | TGI (HOP-18 NSCLC) | TGI (KM20L2 colon) [µM] | TGI (LXFL 529 NSCLC) | TGI (M19-MEL melanoma) | TGI (MDA-N) | TGI (RXF-631 renal) [µM] | TGI (XF 498 CNS) | other results
20 | CCC(C(=O)[O-])C(=O)[O-].CCC(C(=O)[O-])C(=O)[O-].N.N.NCCCCCN.[Pt+4].[Pt+4] | > 100 µM | – | > 100 µM | > 100 | > 100 µM | – | – | – | – | GI50 (DLD-1 colon): > 100 µM; GI50 (HOP-18 NSCLC): > 100 µM; GI50 (KM20L2 colon): > 100 µM; GI50 (LXFL 529 NSCLC): > 100 µM
21 | NC(=O)c1csc(C2C=CC(CO)O2)n1 (stereo unspecified) | – | > 100 µM | > 100 µM | > 100 | > 100 µM | – | – | > 100 | > 100 µM | –
22 | CCCCn1c2c(c3ccccc3c1=O)C(=O)c1ccccc1-2 | – | – | – | – | – | – | > 100 µM | – | – | –
23 | C=C(CN(CC(=C)C(=O)c1ccccc1)C(C)(C)C)C(=O)c1ccccc1 | 10.2 µM | 33.5 µM | 14.3 µM | 37.5 | 10.1 µM | 30 µM | – | – | 16 µM | –
24 | C=CCNC1=C(C(=O)OCC)C(=O)CO1 | > 100 µM | > 100 µM | – | > 100 | > 100 µM | > 100 µM | – | > 100 | > 100 µM | –
25 | FC(F)(F)c1ccc(C=NC23CC4CC(CC(C4)C2)C3)cc1 | – | > 100 µM | – | > 100 | – | – | – | – | – | –
26 | Cc1c(O)c(=O)ccn1C1OC(CO)C(O)C1O (stereo unspecified) | > 100 µM | – | – | > 100 | > 100 µM | > 100 µM | – | – | > 100 µM | –
27 | Cc1ccc(S(=O)(=O)CNC(=S)CCCC(=S)NCS(=O)(=O)c2ccc(C)cc2)cc1 | > 100 µM | – | – | > 100 | > 100 µM | > 100 µM | – | > 100 | > 100 µM | –
28 | O=C(CC/C(C/C(=N/O)c1ccc(F)cc1)=N/O)N(Cc1ccccc1)Cc1ccccc1 | > 100 µM | > 100 µM | > 100 µM | > 100 | > 100 µM | > 100 µM | – | – | – | –
29 | O=C1C=CC(=O)C1(Br)Br | – | – | – | – | – | – | 27.5 µM | – | – | –
30 | CC(=O)O[C@H]1[C@@H]2[C@@H]3[C@@H](C[C@H]1C)[C@@H](C)CO[C@@]1(C)CC/C=C(/C)C[C@@H]2O[C@@H]31 | > 100 µM | > 100 µM | > 100 µM | > 100 | > 100 µM | > 100 µM | – | > 100 | > 100 µM | –
31 | Cc1ccc(-c2ccc(Nc3c4ccccc4nc4ccccc34)cc2)cn1 | – | – | – | – | – | – | 19.6 µM | – | – | –
32 | CCCCCCCCCCCCCC/C(C(=O)OC)=C(/O)C(=O)OCC | > 100 µM | > 100 µM | 73.7 µM | – | > 100 µM | > 100 µM | – | 93.6 | 53.8 µM | –
33 | C/C(=N\NC(=O)CC(=O)Nc1ccc(Cl)cc1)c1cc2ccccc2oc1=O | > 100 µM | > 100 µM | > 100 µM | > 100 | – | > 100 µM | – | – | > 100 µM | –
34 | O=C1c2cccnc2-c2nc(/C=C/c3ccccc3)cc3c2c1nc1ccccc13 | – | – | – | – | – | – | 4.15 µM | – | – | GI50 (MDA-N): 2.04 µM
35 | O=C(O)c1cc2ccccc2c(N=Nc2c([N+](=O)[O-])cc([N+](=O)[O-])cc2S(=O)(=O)O)c1O | – | – | – | – | – | – | > 100 µM | – | – | –
36 | CC1C=C(OC(=O)c2ccccc2)C(=O)C(n2cc(F)c(=O)n(C(=O)c3ccccc3)c2=O)O1 (stereo unspecified) | > 100 µM | > 100 µM | > 100 µM | 81.9 | – | > 100 µM | – | > 100 | 73.3 µM | –
37 | Cn1cc2c(n1)c(N/N=C/c1ccccc1)nn1nnnc21 | > 100 µM | > 100 µM | > 100 µM | > 100 | > 100 µM | > 100 µM | – | > 100 | > 100 µM | –
38 | COc1cc(-c2oc3c(OC)c(OC)cc(O)c3c(=O)c2OC)ccc1O | > 100 µM | > 100 µM | – | > 100 | > 100 µM | – | > 50 µM | > 100 | 16.1 µM | –
